Measurements: PubChem BioAssay (NCI)
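Values below derive from 48-hour exposures of cells grown in 96-well plates, with endpoints linearly interpolated between the two concentrations bracketing the appropriate inhibition level. GI50 marks 50% less growth. TGI is the concentration that stops growth completely.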

Key:
Test in all cases: growth of human tumour cells (NCI), 48 h; in the data active means GI50 below about 0.43 µM; inactive means the rest
HCT-116 colon = test system: HCT-116 colon
T-47D breast = test system: T-47D breast
COLO 205 colon = test system: COLO 205 colon
SF-295 CNS = test system: SF-295 CNS
SK-MEL-5 melanoma = test system: SK-MEL-5 melanoma
EKVX NSCLC = test system: EKVX NSCLC
HS 578T breast = test system: HS 578T breast
MCF7 breast = test system: MCF7 breast
U251 CNS = test system: U251 CNS
HOP-92 NSCLC = test system: HOP-92 NSCLC
SK-MEL-28 melanoma = test system: SK-MEL-28 melanoma
HCC-2998 colon = test system: HCC-2998 colon
IGROV1 ovarian = test system: IGROV1 ovarian
CAKI-1 renal = test system: CAKI-1 renal
NCI-H460 lung = test system: NCI-H460 lung
RXF 393 renal = test system: RXF 393 renal
SNB-75 CNS = test system: SNB-75 CNS
CCRF-CEM leukemia = test system: CCRF-CEM leukemia
NCI/ADR-RES ovarian = test system: NCI/ADR-RES ovarian
SF-268 CNS = test system: SF-268 CNS
NCI-H23 lung = test system: NCI-H23 lung
A549 NSCLC = test system: A549 NSCLC
UACC-257 melanoma = test system: UACC-257 melanoma
NCI-H226 lung = test system: NCI-H226 lung
SK-OV-3 ovarian = test system: SK-OV-3 ovarian
OVCAR-5 ovarian = test system: OVCAR-5 ovarian
K-562 leukemia = test system: K-562 leukemia
SR leukemia = test system: SR leukemia
ACHN renal = test system: ACHN renal
MALME-3M melanoma = test system: MALME-3M melanoma
A498 renal = test system: A498 renal
UACC-62 melanoma = test system: UACC-62 melanoma
M14 melanoma = test system: M14 melanoma
DU-145 prostate = test system: DU-145 prostate
RPMI-8226 leukemia = test system: RPMI-8226 leukemia
MDA-MB-435 = test system: MDA-MB-435
SF-539 CNS = test system: SF-539 CNS
PC-3 prostate = test system: PC-3 prostate
KM12 colon = test system: KM12 colon
786-0 renal = test system: 786-0 renal
SW-620 colon = test system: SW-620 colon
OVCAR-4 ovarian = test system: OVCAR-4 ovarian
OVCAR-8 ovarian = test system: OVCAR-8 ovarian
OVCAR-3 ovarian = test system: OVCAR-3 ovarian
LOX IMVI melanoma = test system: LOX IMVI melanoma
HCT-15 colon = test system: HCT-15 colon
MOLT-4 leukemia = test system: MOLT-4 leukemia
UO-31 renal = test system: UO-31 renal
HOP-62 NSCLC = test system: HOP-62 NSCLC
SNB-19 CNS = test system: SNB-19 CNS
SN12C renal = test system: SN12C renal
MDA-MB-231 breast = test system: MDA-MB-231 breast

Cc1c(C)[n+](=O)c(C)c(C)n1[O-]
inactive: GI50 (HCT-116 colon) > 100 µM | GI50 (T-47D breast) > 100 µM | GI50 (COLO 205 colon) > 100 µM | GI50 (SF-295 CNS) > 100 µM | GI50 (SK-MEL-5 melanoma) > 100 µM | GI50 (EKVX NSCLC) > 100 µM | GI50 (HS 578T breast) > 100 µM | GI50 (MCF7 breast) > 100 µM | GI50 (U251 CNS) > 100 µM | GI50 (HOP-92 NSCLC) 2.91 µM | GI50 (SK-MEL-28 melanoma) > 100 µM | GI50 (HCC-2998 colon) > 100 µM | GI50 (IGROV1 ovarian) > 100 µM | GI50 (CAKI-1 renal) > 100 µM | GI50 (NCI-H460 lung) > 100 µM | GI50 (RXF 393 renal) > 100 µM | GI50 (SNB-75 CNS) 79.8 µM | GI50 (CCRF-CEM leukemia) > 100 µM | GI50 (NCI/ADR-RES ovarian) > 100 µM | GI50 (SF-268 CNS) > 100 µM | GI50 (NCI-H23 lung) > 100 µM | GI50 (A549 NSCLC) > 100 µM | GI50 (UACC-257 melanoma) > 100 µM | GI50 (NCI-H226 lung) > 100 µM | GI50 (SK-OV-3 ovarian) > 100 µM | GI50 (OVCAR-5 ovarian) > 100 µM | GI50 (K-562 leukemia) > 100 µM | GI50 (SR leukemia) > 100 µM | GI50 (ACHN renal) > 100 µM | GI50 (MALME-3M melanoma) > 100 µM | GI50 (A498 renal) > 100 µM | GI50 (UACC-62 melanoma) > 100 µM | GI50 (M14 melanoma) > 100 µM | GI50 (DU-145 prostate) > 100 µM | GI50 (RPMI-8226 leukemia) > 100 µM | GI50 (MDA-MB-435) > 100 µM | GI50 (SF-539 CNS) > 100 µM | GI50 (PC-3 prostate) > 100 µM | GI50 (KM12 colon) > 100 µM | GI50 (786-0 renal) > 100 µM | GI50 (SW-620 colon) > 100 µM | GI50 (OVCAR-4 ovarian) > 100 µM | GI50 (OVCAR-8 ovarian) > 100 µM | GI50 (OVCAR-3 ovarian) > 100 µM | GI50 (LOX IMVI melanoma) > 100 µM | GI50 (HCT-15 colon) > 100 µM | GI50 (MOLT-4 leukemia) > 100 µM | GI50 (UO-31 renal) > 100 µM | GI50 (HOP-62 NSCLC) > 100 µM | GI50 (SNB-19 CNS) > 100 µM | GI50 (SN12C renal) > 100 µM | GI50 (MDA-MB-231 breast) > 100 µM
> 100 µM: TGI (HCT-116 colon) | TGI (T-47D breast) | TGI (COLO 205 colon) | TGI (SF-295 CNS) | TGI (SK-MEL-5 melanoma) | TGI (EKVX NSCLC) | TGI (HS 578T breast) | TGI (MCF7 breast) | TGI (U251 CNS) | TGI (HOP-92 NSCLC) | TGI (SK-MEL-28 melanoma) | TGI (HCC-2998 colon) | TGI (IGROV1 ovarian) | TGI (CAKI-1 renal) | TGI (NCI-H460 lung) | TGI (RXF 393 renal) | TGI (SNB-75 CNS) | TGI (CCRF-CEM leukemia) | TGI (NCI/ADR-RES ovarian) | TGI (SF-268 CNS) | TGI (NCI-H23 lung) | TGI (A549 NSCLC) | TGI (UACC-257 melanoma) | TGI (NCI-H226 lung) | TGI (SK-OV-3 ovarian) | TGI (OVCAR-5 ovarian) | TGI (K-562 leukemia) | TGI (SR leukemia) | TGI (ACHN renal) | TGI (MALME-3M melanoma) | TGI (A498 renal) | TGI (UACC-62 melanoma) | TGI (M14 melanoma) | TGI (DU-145 prostate) | TGI (RPMI-8226 leukemia) | TGI (MDA-MB-435) | TGI (SF-539 CNS) | TGI (PC-3 prostate) | TGI (KM12 colon) | TGI (786-0 renal) | TGI (SW-620 colon) | TGI (OVCAR-4 ovarian) | TGI (OVCAR-8 ovarian) | TGI (OVCAR-3 ovarian) | TGI (LOX IMVI melanoma) | TGI (HCT-15 colon) | TGI (MOLT-4 leukemia) | TGI (UO-31 renal) | TGI (HOP-62 NSCLC) | TGI (SNB-19 CNS) | TGI (SN12C renal) | TGI (MDA-MB-231 breast)
